How the values were obtained:
sprangletop = experiment: Control of aquatic plant species (paddy water); type: in vivo, Leptochloa filiformis; details: Leptochloa filiformis, 216 h, nine days, read-out: Percent control; for pest or weed control at 250 g/ha: 0.25 Kg/Ha; for pest or weed control at 125 g/ha: 0.125 Kg/Ha
Summary of the method: (§1)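 1-2 inch plants transplanted into ~2 in soil, flooded ~1 in deep; acetone concentrate injected into floodwater, volume adjusted for target concentration; % control scored at 9 days.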

sorghum = experiment: Preemergent control of plant species; type: in vivo, Sorghum vulgare; details: Sorghum, pre-emergence, 336 h; 0.25 lb/acre; read-out: percent preemergent control
Summary of the method: (§2)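 Growth reduction relative to untreated plants of the same species, assessed two weeks after treatment, defines the control value. Compositions, mostly aqueous emulsions, were deposited uniformly on seeded greenhouse soil beds at the tabulated rates, with a water-treated bed as reference.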

annual morning glory = experiment: Preemergent control of plant species; type: in vivo, Ipomoea spp.; details: Ipomoea, pre-emergence, 336 h; 0.25 lb/acre; read-out: percent preemergent control
Summary of the method: as §2

[1] = system: nitrification of ammonium nitrogen; experiment: Suppression of nitrification of ammonium nitrogen in soil; details: 27° C.
Summary of the method: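 Soil (20 g) moistened to its 1/3 bar tension value, mixed with test chemical and incubated sealed for two weeks at 27° C. Nitrate extracted with ammonium sulfate solution and measured by nitrate-specific ion electrode; value given as % NH4-N remaining.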

yellow foxtail = experiment: Preemergent control of plant species; type: in vivo, Setaria lutescens; details: Setaria, pre-emergence, 336 h; 0.25 lb/acre; read-out: percent preemergent control
Summary of the method: as §2

yellow nutsedge [2] = experiment: Control of aquatic plant species (paddy water); type: in vivo, Cyperus esculentus; details: Cyperus, 216 h, nine days, read-out: Percent control; for pest or weed control at 250 g/ha: 0.25 Kg/Ha; for pest or weed control at 125 g/ha: 0.125 Kg/Ha
Summary of the method: as §1

pigweed = experiment: Preemergent control of plant species; type: in vivo, Amaranthus spp.; details: Amaranthus retroflexus, pre-emergence, 336 h; 0.25 lb/acre; read-out: percent preemergent control
Description: (§3) The seeds of various species of plants were planted in beds of good agricultural soil in a greenhouse. A number of compositions of the present invention, generally in the nature of an aqueous emulsion, were applied at rates listed in the table so as to deposit a predetermined amount of active ingredients uniformly throughout the surface of the bed. Another seed bed was treated only with water to serve as a control. After treatment the seed beds were maintained for two weeks under greenhouse conditions conducive for good plant growth and watered as necessary. Control refers to the reduction in growth compared to the observed results of the same untreated species.

barnyardgrass [3] = experiment: Control of aquatic plant species (paddy water); type: in vivo, Echinochloa crusgalli; details: Echinochloa crus-galli, 216 h, nine days, read-out: Percent control; for pest or weed control at 250 g/ha: 0.25 Kg/Ha; for pest or weed control at 125 g/ha: 0.125 Kg/Ha
Description: In testing for such utility, the plant species to be tested were transplanted into 16 oz. containers into about 2 inches of soil when they were in the 1-2 inch stage and then flooded to a depth of about 1 inch. An acetone concentrate of the chemical to be tested was then injected into the paddy water, the volume injected being varied as desired to provide the desired concentration. Percent control was evaluated nine days after application.

rice [4] = experiment: Preemergent control of plant species; type: in vivo, Oryza sativa; details: Oryza sativa, pre-emergence, 336 h; 0.25 lb/acre; read-out: percent preemergent control
Summary of the method: as §2

corn = experiment: Preemergent control of plant species; type: in vivo, Zea mays; details: Zea mays, pre-emergence, 336 h; 0.25 lb/acre; read-out: percent preemergent control
Summary of the method: as §2

johnson grass = experiment: Preemergent control of plant species; type: in vivo, Sorghum halepense; details: Sorghum halepense, pre-emergence, 336 h; 0.25 lb/acre; read-out: percent preemergent control
Summary of the method: as §2

yellow nutsedge [5] = experiment: Preemergent control of plant species; type: in vivo, Cyperus esculentus; details: Cyperus, pre-emergence, 336 h; 0.25 lb/acre; read-out: percent preemergent control
Summary of the method: as §2

velvetleaf = experiment: Preemergent control of plant species; type: in vivo, Abutilon theophrasti; details: Abutilon theophrasti, pre-emergence, 336 h; 0.25 lb/acre; read-out: percent preemergent control
Summary of the method: as §2

soybean = experiment: Preemergent control of plant species; type: in vivo, Glycine max.; details: Glycine max, pre-emergence, 336 h; 0.25 lb/acre; read-out: percent preemergent control
Summary of the method: as §2

rape = experiment: Preemergent control of plant species; type: in vivo, Brassica napus; details: Brassica napus, pre-emergence, 336 h; 0.25 lb/acre; read-out: percent preemergent control
Summary of the method: as §2

sugar beet = experiment: Preemergent control of plant species; type: in vivo, Beta saccharifera; details: Beta vulgaris, pre-emergence, 336 h; 0.25 lb/acre; read-out: percent preemergent control
Summary of the method: as §2

barnyardgrass [6] = experiment: Preemergent control of plant species; type: in vivo, Echinochloa crusgalli; details: Echinochloa crus-galli, pre-emergence, 336 h; 0.25 lb/acre; read-out: percent preemergent control
Summary of the method: as §2

wild oats = experiment: Preemergent control of plant species; type: in vivo; details: Avena fatua, pre-emergence, 336 h; 0.25 lb/acre; read-out: percent preemergent control
Summary of the method: as §2

rice [7] = experiment: Control of aquatic plant species (paddy water); type: in vivo, Oryza sativa; details: Oryza sativa, 216 h, nine days, read-out: Percent control; for pest or weed control at 250 g/ha: 0.25 Kg/Ha; for pest or weed control at 125 g/ha: 0.125 Kg/Ha
Summary of the method: as §1

wheat = experiment: Preemergent control of plant species; type: in vivo, Triticum aestivum; details: Triticum aestivum, pre-emergence, 336 h; 0.25 lb/acre; read-out: percent preemergent control
Summary of the method: as §2

jimsonweed = experiment: Preemergent control of plant species; type: in vivo, Datura stramonium; details: Datura stramonium, pre-emergence, 336 h; 0.25 lb/acre; read-out: percent preemergent control
Summary of the method: as §2

crabgrass = experiment: Preemergent control of plant species; type: in vivo, Digitaria spp.; details: Digitaria sanguinalis, pre-emergence, 336 h; 0.25 lb/acre; read-out: percent preemergent control
Description: as §3

cotton = experiment: Preemergent control of plant species; type: in vivo, Gossypium spp.; details: Gossypium hirsutum, pre-emergence, 336 h; 0.25 lb/acre; read-out: percent preemergent control
Summary of the method: as §2

Row | Structure (SMILES) | pest or weed control at 250 g/ha (sprangletop) [%] | plant injury at 280.212 g/ha (sorghum) [%] | pest or weed control at 280.212 g/ha (annual morning glory) [%] | % NH4-N Remaining After 2 Weeks Incubation ([1]; 1 ppm) [%] | pest or weed control at 280.212 g/ha (yellow foxtail) [%] | pest or weed control at 280.212 g/ha (pigweed) [%] | plant injury at 280.212 g/ha (rice [4]) [%] | plant injury at 280.212 g/ha (corn) [%] | pest or weed control at 280.212 g/ha (johnson grass) [%] | pest or weed control at 280.212 g/ha (yellow nutsedge [5]) [%] | pest or weed control at 280.212 g/ha (velvetleaf) [%] | plant injury at 280.212 g/ha (soybean) [%] | plant injury at 280.212 g/ha (rape) [%] | plant injury at 280.212 g/ha (sugar beet) [%] | pest or weed control at 280.212 g/ha (barnyardgrass [6]) [%] | pest or weed control at 280.212 g/ha (wild oats) [%] | plant injury at 280.212 g/ha (wheat) [%] | pest or weed control at 280.212 g/ha (jimsonweed) [%] | pest or weed control at 280.212 g/ha (crabgrass) [%] | plant injury at 280.212 g/ha (cotton) [%] | further results
1 | Cc1cc(C)n2nc(S(=O)(=O)Nc3c(Cl)cccc3Cl)nc2n1 [Compound 22, 5,7-Dimethyl-N-(2,6-dichlorophenyl)-1,2,4-triazolo[1,5-a]pyrimidine-2-sulfonamide] | 30 | 95 | 70 | 86 | 98 | 100 | 90 | 50 | 98 | 98 | 98 | 95 | 100 | 98 | 95 | 90 | 50 | 100 | 95 | 95 | % NH4-N Remaining After 2 Weeks Incubation ([1]; 0.06 ppm): 69%; % NH4-N Remaining After 2 Weeks Incubation ([1]; 0.125 ppm): 77%; % NH4-N Remaining After 2 Weeks Incubation ([1]; 0.25 ppm): 82%; % NH4-N Remaining After 2 Weeks Incubation ([1]; 0.5 ppm): 86%; pest or weed control at 250 g/ha (yellow nutsedge [2]): 97%; pest or weed control at 250 g/ha (barnyardgrass [3]): 97%; pest or weed control at 250 g/ha (rice [7]): 97%
2 | COC(=O)c1cccc(C)c1NS(=O)(=O)c1nc2nc(C)cc(C)n2n1 [Compound 50] | – | 100 | 80 | 73 | 95 | 100 | 97 | 99 | 95 | 99 | 93 | 95 | 95 | 100 | 95 | 60 | 100 | 100 | 25 | 80 | pest or weed control at 125 g/ha (sprangletop): 97%; % NH4-N Remaining After 2 Weeks Incubation ([1]; 0.01 ppm): 0%; % NH4-N Remaining After 2 Weeks Incubation ([1]; 0.1 ppm): 38%; % NH4-N Remaining After 2 Weeks Incubation ([1]; 10 ppm): 92%; pest or weed control at 125 g/ha (yellow nutsedge [2]): 97%; pest or weed control at 125 g/ha (barnyardgrass [3]): 97%; pest or weed control at 125 g/ha (rice [7]): 97%
3 | Cc1cc(C)n2nc(S(=O)(=O)Nc3c(C)cccc3Cl)nc2n1 [Compound 31] | – | 50 | 100 | 86 | 100 | 95 | 98 | 95 | 100 | – | 95 | 95 | 98 | 100 | 100 | 98 | 98 | 65 | 100 | 80 | pest or weed control at 125 g/ha (sprangletop): 45%; % NH4-N Remaining After 2 Weeks Incubation ([1]; 0.01 ppm): 34%; % NH4-N Remaining After 2 Weeks Incubation ([1]; 0.1 ppm): 66%; % NH4-N Remaining After 2 Weeks Incubation ([1]; 10 ppm): 91%; pest or weed control at 125 g/ha (yellow nutsedge [2]): 97%; pest or weed control at 125 g/ha (barnyardgrass [3]): 97%; pest or weed control at 125 g/ha (rice [7]): 90%
4 | Cc1cc(C)n2nc(S(=O)(=O)Nc3c(F)cccc3F)nc2n1 [Compound 25, 5,7-Dimethyl-N-(2,6-difluorophenyl)-1,2,4-triazolo[1,5-a]pyrimidine-2-sulfonamide] | 0 | – | 80 | 79 | 100 | 100 | 100 | 100 | 98 | 95 | 98 | 98 | 100 | 100 | 98 | 95 | 70 | 98 | 100 | 98 | % NH4-N Remaining After 2 Weeks Incubation ([1]; 0.06 ppm): 31%; % NH4-N Remaining After 2 Weeks Incubation ([1]; 0.125 ppm): 46%; % NH4-N Remaining After 2 Weeks Incubation ([1]; 0.25 ppm): 48%; % NH4-N Remaining After 2 Weeks Incubation ([1]; 0.5 ppm): 73%; pest or weed control at 250 g/ha (yellow nutsedge [2]): 90%; pest or weed control at 250 g/ha (barnyardgrass [3]): 95%; pest or weed control at 250 g/ha (rice [7]): 97%
